Measurements reported in US20090131468A1, “Bis-(Sulfonylamino) Derivatives in Therapy 065” (AstraZeneca AB, priority 2007, published 2009).

What follows are compounds tested against T1, human mPGES-1 (Homo sapiens, UniProt O14684) (assay: Microsomal prostaglandin E synthase biochemical assay). Settings: microsome preparation containing human mPGES-1; PGH2 10.8 μM, GSH 2.5 mM, pH 6.8; PGE2 quantified by HTRF; average of at least n=2.
T1 sequence (O14684 1-152): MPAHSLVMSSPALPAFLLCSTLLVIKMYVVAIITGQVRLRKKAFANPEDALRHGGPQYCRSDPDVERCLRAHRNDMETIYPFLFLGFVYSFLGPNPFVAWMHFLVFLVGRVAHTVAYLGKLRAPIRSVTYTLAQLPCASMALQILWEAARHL
Procedure: Compounds were tested as inhibitors of microsomal prostaglandin E synthase activity in microsomal prostaglandin E synthase assays and whole cell assays. These assays measure prostaglandin E2 (PGE2) synthesis which is taken as a measure of prostaglandin E synthase activity. Microsomal prostaglandin E synthase biochemical assays used microsomal prostaglandin E synthase-1 in microsomal preparations. The source of the microsomes can be for example interleukin-1β-stimulated human A549 cells (which express human mPGES-1) or Sf9 cells transfected with plasmids encoding human mPGES-1 cDNA.
A solution of test compound was added to a diluted microsome preparation containing human mPGES-1 and pre-incubated for 15 minutes in potassium phosphate buffer pH 6.8 with cofactor glutathione (GSH). Corresponding solutions without test compound were used as positive controls, and corresponding solutions without test compound and without microsomes were used as negative controls. The enzymatic reaction was then started by addition of the substrate PGH2 in an organic solution (dry acetonitrile).
The reaction was stopped after one minute by adding an acidic solution (pH 1.9) of ferric chloride and citrate (final concentrations 7 mM and 47 mM respectively), by which the PGH2 was sequestered (the PGH2 is reduced to mainly 12-hydroxy heptadecatrineoic acid (12-HHT) which is not detected by the subsequent PGE2 detection step). The resulting solution was then pH neutralized by addition of potassium phosphate buffer, prior to diluting an aliquot of the resulting solution in a weak potassium phosphate buffer (50 mM, pH 6.8) containing 0.2% BSA (w/v). […] The PGE2 formed was quantified by use of a commercial HTRF based kit (catalogue #62PG2PEC or #62P2APEC from Cisbio International). 100% activity was defined as the PGE2 production in positive controls subtracted by the PGE2 production in the negative controls. IC50 values were then determined using standard procedures.

SMILES | IC50 [nM]
NS(=O)(=O)c1ccccc1S(=O)(=O)NC(=O)C1(c2ccccc2)CCCCC1 [Example 18, 1-Phenyl-N-(2-sulfamoylphenyl)sulfonyl-cyclohexane-1-carboxamide] | 100
NS(=O)(=O)c1ccccc1S(=O)(=O)NC(=O)c1ccc2oc(C3(O)CCCC3)cc2c1 [Example 77, 2-(1-Hydroxycyclopentyl)-N-(2-sulfamoylphenylsulfonyl)benzofuran-5-carboxamide] | 720
NS(=O)(=O)c1ccccc1S(=O)(=O)NC(=O)c1ccc(C#Cc2cccnc2)nc1 [Example 95, 6-(Pyridin-3-ylethynyl)-N-(2-sulfamoylphenylsulfonyl)nicotinamide] | 2000
NS(=O)(=O)c1ccccc1S(=O)(=O)NC(=O)c1ccc(C#Cc2ccccn2)cc1 [Example 71, 4-(Pyridin-2-ylethynyl)-N-(2-sulfamoylphenylsulfonyl)benzamide] | 1000
N#Cc1cc(C(=O)NS(=O)(=O)c2ccccc2S(N)(=O)=O)ccc1-c1cc2ccccc2o1 [Example 80, 4-(Benzofuran-2-yl)-3-cyano-N-(2-sulfamoylphenylsulfonyl)benzamide] | 130
NS(=O)(=O)c1ccccc1S(=O)(=O)NC(=O)c1ccc(C#CC2CCCCC2)cn1 [Example 88, 5-(Cyclohexylethynyl)-N-(2-sulfamoylphenylsulfonyl)picolinamide] | 140
CC(C)Oc1cc(C(=O)NS(=O)(=O)c2ccccc2S(N)(=O)=O)ccc1C#CC1(O)CCCCCC1 [Example 133, 4-((1-Hydroxycycloheptyl)ethynyl)-3-isopropoxy-N-(2-sulfamoylphenylsulfonyl)-benzamide] | 560
NS(=O)(=O)c1ccccc1S(=O)(=O)NC(=O)c1ccc(Cl)cc1O [Example 81, 4-Chloro-2-hydroxy-N-(2-sulfamoylphenylsulfonyl)benzamide] | 1000
Cc1cc(C(=O)NS(=O)(=O)c2ccccc2S(N)(=O)=O)ccc1Br [Example 12, 4-Bromo-3-methyl-N-(2-sulfamoylphenyl)sulfonyl-benzamide] | 170
NS(=O)(=O)c1ccccc1S(=O)(=O)NC(=O)c1ccc(-c2cc3ccccc3o2)cc1Cl [Example 91, 4-(Benzofuran-2-yl)-2-chloro-N-(2-sulfamoylphenylsulfonyl)benzamide] | 120
COCCOCCOc1cc(C(=O)NS(=O)(=O)c2ccccc2S(N)(=O)=O)cnc1-c1cc2ccccc2o1 [Example 135, 6-(Benzofuran-2-yl)-5-(2-(2-methoxyethoxy)ethoxy)-N-(2-sulfamoylphenylsulfonyl)-nicotinamide] | 81
CCOC(=O)c1ccc(-c2ccc(C(=O)NS(=O)(=O)c3ccccc3S(N)(=O)=O)o2)cc1 [Example 41, Ethyl 4-[5-[(2-Sulfamoylphenyl)sulfonylcarbamoyl]-2-furyl]benzoate] | 5400
NS(=O)(=O)c1ccccc1S(=O)(=O)NC(=O)c1ccc(-c2ccccn2)s1 [Example 34, 5-Pyridin-2-yl-N-(2-sulfamoylphenyl)sulfonyl-thiophene-2-carboxamide] | 1600
COc1cc(C(=O)NS(=O)(=O)c2ccccc2S(N)(=O)=O)ccc1-c1cc2ccccc2o1 [Example 50, 4-(Benzofuran-2-yl)-3-methoxy-N-(2-sulfamoylphenylsulfonyl)benzamide] | 3.2
NS(=O)(=O)c1ccccc1S(=O)(=O)NC(=O)c1ccc2oc(-c3ccccc3)cc2c1 [Example 25, 2-Phenyl-N-(2-sulfamoylphenyl)sulfonyl-benzofuran-5-carboxamide] | 20
NS(=O)(=O)c1ccccc1S(=O)(=O)NC(=O)c1ccc(Br)cc1Cl [Example 11, 4-Bromo-2-chloro-N-(2-sulfamoylphenyl)sulfonyl-benzamide] | 5500
NS(=O)(=O)c1ccccc1S(=O)(=O)NC(=O)c1ccc(-c2cc3ccccc3o2)cc1F [Example 83, 4-(Benzofuran-2-yl)-2-fluoro-N-(2-sulfamoylphenylsulfonyl)benzamide] | 42
COCCOCCOc1cc(C(=O)NS(=O)(=O)c2ccccc2S(N)(=O)=O)cnc1C#CC1CCCC1 [Example 136, 6-(Cyclopentylethynyl)-5-(2-(2-methoxyethoxy)ethoxy)-N-(2-sulfamoylphenyl-sulfonyl)nicotinamide] | 65
Cc1nc(-c2cc3ccccc3o2)sc1C(=O)NS(=O)(=O)c1ccccc1S(N)(=O)=O [Example 63, 2-(Benzofuran-2-yl)-4-methyl-N-(2-sulfamoylphenylsulfonyl)thiazole-5-carboxamide] | 96

SMILES | IC50 [nM]
CC(C)(O)C#Cc1cccc(-c2ccccc2C(=O)NS(=O)(=O)c2ccccc2S(N)(=O)=O)c1 [Example 64, 3′-(3-Hydroxy-3-methylbut-1-ynyl)-N-(2-sulfamoylphenylsulfonyl)biphenyl-2-carboxamide] | 6200
CC(C)(C)C#Cc1cccc(C(=O)NS(=O)(=O)c2ccccc2S(N)(=O)=O)c1 [Example 60, 3-(3,3-Dimethylbut-1-ynyl)-N-(2-sulfamoylphenylsulfonyl)benzamide] | 270
NS(=O)(=O)c1ccccc1S(=O)(=O)NC(=O)c1ccc(-c2ccccc2)s1 [Example 35, 5-Phenyl-N-(2-sulfamoylphenyl)sulfonyl-thiophene-2-carboxamide] | 530
NS(=O)(=O)c1ccccc1S(=O)(=O)NC(=O)c1ccc(C#CC2CCCC2)c(F)c1 [Example 146, 4-(Cyclopentylethynyl)-3-fluoro-N-(2-sulfamoylphenylsulfonyl)benzamide] | 15
NS(=O)(=O)c1ccccc1S(=O)(=O)NC(=O)c1ccc(C#CC2CC2)c2c1OC(F)(F)O2 [Example 159, 7-(Cyclopropylethynyl)-2,2-difluoro-N-(2-sulfamoylphenylsulfonyl)-benzo[d][1,3]dioxole-4-carboxamide] | 63
CC(C)(C)C#Cc1ccc(C(=O)NS(=O)(=O)c2ccccc2S(N)(=O)=O)c(F)c1 [Example 84, 4-(3,3-Dimethylbut-1-ynyl)-2-fluoro-N-(2-sulfamoylphenylsulfonyl)benzamide] | 170
NS(=O)(=O)c1ccccc1S(=O)(=O)NC(=O)c1c(F)cc(C#CC2CCCC2)cc1F [Example 153, 4-(Cyclopentylethynyl)-2,6-difluoro-N-(2-sulfamoylphenylsulfonyl)benzamide] | 330
CC(C)(C)C#Cc1ccc(C(=O)NS(=O)(=O)c2ccccc2S(N)(=O)=O)c2ccccc12 [Example 61, 4-(3,3-Dimethylbut-1-ynyl)-N-(2-sulfamoylphenylsulfonyl)-1-naphthamide] | 99
NS(=O)(=O)c1ccccc1S(=O)(=O)NC(=O)c1ccc2[nH]c(-c3ccccc3)cc2c1 [Example 140] | 140
CC(C)(O)C#Cc1cc(C(=O)NS(=O)(=O)c2ccccc2S(N)(=O)=O)ccc1OCc1ccccc1 [Example 156, 4-(Benzyloxy)-3-(3-hydroxy-3-methylbut-1-ynyl)-N-(2-sulfamoylphenylsulfonyl)-benzamide] | 110
NS(=O)(=O)c1ccccc1S(=O)(=O)NC(=O)c1ccc2cc(-c3ccccc3)oc2c1 [Example 9, 2-Phenyl-N-(2-sulfamoylphenyl)sulfonyl-benzofuran-6-carboxamide] | 78
COC(C)(C)C#Cc1ccc(C(=O)NS(=O)(=O)c2ccccc2S(N)(=O)=O)cc1 [Example 112, 4-(3-Methoxy-3-methylbut-1-ynyl)-N-(2-sulfamoylphenylsulfonyl)benzamide] | 1400
CC(C)Oc1cc(C(=O)NS(=O)(=O)c2ccccc2S(N)(=O)=O)cnc1C#CC1CCCCC1 [Example 144, 6-(Cyclohexylethynyl)-5-isopropoxy-N-(2-sulfamoylphenylsulfonyl)nicotinamide] | 11
NS(=O)(=O)c1ccccc1S(=O)(=O)NC(=O)c1ccc(-c2cc3ccccc3s2)cc1 [Example 4, 4-Benzothiophen-2-yl-N-(2-sulfamoylphenyl)sulfonyl-benzamide] | 40
NS(=O)(=O)c1ccccc1S(=O)(=O)NC(=O)c1ccc(Cl)cc1F [Example 23, 4-Chloro-2-fluoro-N-(2-sulfamoylphenyl)sulfonyl-benzamide] | 1000
NS(=O)(=O)c1ccccc1S(=O)(=O)NC(=O)c1cnc(C#Cc2ccc(Cl)cc2)nc1 [Example 102, 2-((4-chlorophenyl)ethynyl)-N-(2-sulfamoylphenylsulfonyl)pyrimidine-5-carboxamide] | 53
CC(C)Oc1cc(C(=O)NS(=O)(=O)c2ccccc2S(N)(=O)=O)cnc1C#CC1CC1 [Example 142, 6-(cyclopropylethynyl)-5-isopropoxy-N-(2-sulfamoylphenylsulfonyl)nicotinamide] | 49
CC(C)(C)C#Cc1ncc(C(=O)NS(=O)(=O)c2ccccc2S(N)(=O)=O)cc1Cl [Example 149, 5-Chloro-6-(3,3-dimethylbut-1-ynyl)-N-(2-sulfamoylphenylsulfonyl)nicotinamide] | 64
